Results from patent US5166205A, “Derivatives of 1-diphenylmethyl piperazine and their use as antihistamines” (Laboratorios Del Dr. Esteve, S. A., priority 1990, dated 1992).

What was measured:
[1] = tested on: death induced by 48/80; test: "In vivo" antihistaminic activity: protection from death induced by compound 48/80 in the rat; details: for ED50: ip, 4 h, i.p., rat, 48/80 0.5 mg/kg i.v. after 60 minutes, survival four hours after injection, read-out: ED-50 (dose capable of protecting 50% of the animals from death induced by 48/80)
Procedure: The antihistaminic activity was studied by determining the protection in the face of the mortality used by the product 48/80 in the rat. This test was performed in accordance with the technique described by C. J. E. Niemegeers et cols. (Arch. int. Pharmacodyn., 234, 164-176 (1978). The products according to the present invention are administered intra-peritonially to rats. After 60 minutes the compound 48/80 is administered (0.5 mg/kg, i.v.).
The protective activity is defined as the survival of the rats four hours after the i.v. injection of 48/80.
The activity of the products was studied at several doses in order to determine the dose capable of protecting 50% of the animals (ED-50).
"In vivo" antihistaminic activity Protection from death induced by 48/80

[2] = Sedative action: Irwin Test (passivity, ataxia); details: for Atax. (ataxia, alterations of coordination in locomotion), evaluated between 0 and 3 / Pas. (passivity, sedation, prostation), evaluation between 0 and 3 / Effect: toxic: rat, i.p.; for Atax. (ataxia, alterations of coordination in locomotion), evaluated between 0 and 3 / Pas. (passivity, sedation, prostation), evaluation between 0 and 3: 1, 2 and 3 hours after treatment
Procedure: Pas.: Passivity, sedation, prostation. Quantitative evaluation between 0 and 3. They were performed 1, 2 and 3 hours after the treatment.
Atax.: Ataxia, the alterations of coordination in locomotion were evaluated. They were evaluated between 0 and 3. They were performed 1, 2 and 3 hours after the treatment.
Sedative action: 1) Irwin Test

[3] = Sedative effect: potentiation of the sleep time induced by pentobarbital; details: for Potentiation of the sleep time induced by pentobarbital (in words): oral, example 5 up to 160 mg/kg, difenhidramine at 20 mg/kg; for Potentiation sleep time: sodium pentobarbital 35 mg/kg s.c. one hour later
Procedure: The study of the potentiation of the sleep time due to the pentobarbital was performed following the method described by L. E. Allen and cols. […] The products studied were administered orally. […] The sleep time was compared with a group of control animals, treated only with sodium pentobarbital.

SMILES	ED50 [1] [mg/kg]	Atax. (ataxia, alterations of coordination in locomotion), evaluated between 0 and 3 ([2]; 40 mg/kg)	Pas. (passivity, sedation, prostation), evaluation between 0 and 3 ([2]; 40 mg/kg)	Effect: toxic ([2]; 80 mg/kg)	Atax. (ataxia, alterations of coordination in locomotion), evaluated between 0 and 3 ([2]; 80 mg/kg)	Pas. (passivity, sedation, prostation), evaluation between 0 and 3 ([2]; 80 mg/kg)	also measured
CN(C)CCOC(c1ccccc1)c1ccccc1 [Difenhidramine, reference compound]	5.4	0.9	0				Potentiation of the sleep time induced by pentobarbital (in words) [3]: potentiates significantly the sleep time at the dose of 20 mg/kg
Brc1cnn(CCCCN2CCN(C(c3ccccc3)c3ccccc3)CC2)c1 [Example 1, 4-Bromo-1-[4-(4-diphenylmethyl-1-piperazinyl)butyl]pyrazole]	3.2	1.4	0.8	Toxic			Atax. (ataxia, alterations of coordination in locomotion), evaluated between 0 and 3 ([2]; 20 mg/kg): 1.2; Pas. (passivity, sedation, prostation), evaluation between 0 and 3 ([2]; 20 mg/kg): 0.8
Clc1cnn(CCCCN2CCN(C(c3ccccc3)c3ccccc3)CC2)c1 [Example 2, 4-Chloro-1-[4-(-4-diphenylmethyl-1-piperazinyl)butyl]pyrazole]	3	1.5	0.2	Tox.	0.4	0	
c1ccc(C(c2ccccc2)N2CCN(CCCCn3cccc3)CC2)cc1 [Example 8, 1-[4-(4-Diphenylmethyl-1-piperazinyl)butyl]pyrrole]	6.7						
O=C(O)c1cnn(CCCCN2CCN(C(c3ccccc3)c3ccccc3)CC2)c1 [Example 4, 1-[4-(4-Diphenylmethyl-1-piperazinyl)butyl]-4-carboxy pyrazole]	0.62				1	0.9	Atax. (ataxia, alterations of coordination in locomotion), evaluated between 0 and 3 ([2]; 160 mg/kg): 1.6; Pas. (passivity, sedation, prostation), evaluation between 0 and 3 ([2]; 160 mg/kg): 1.2
Brc1cnn(CCCN2CCN(C(c3ccccc3)c3ccccc3)CC2)c1 [Example 3, 4-Bromo-1-[3-(4-diphenylmethyl-1-piperazinyl)propyl]pyrazole]	10				0.7	0	
c1ccc(C(c2ccccc2)N2CCN(CCCCn3ccnc3)CC2)cc1 [Example 6, 1-[4-(4-Diphenylmethyl-1-piperazinyl)butyl]imidazole]	2.5				0.3	1.3	
c1ccc(C(c2ccccc2)N2CCN(CCCCn3cncn3)CC2)cc1 [Example 7, 1-[4-(4-Diphenylmethyl-1-piperazinyl)butyl]-1,2,4,-triazole]	0.6			Toxic			
Cc1cnn(CCCCN2CCN(C(c3ccccc3)c3ccccc3)CC2)c1 [Example 5, 1-4-[4-(-Diphenylmethyl-1-piperazinyl)butyl]-4-methyl pyrazole]	0.62				0.5	0.7	antihistaminic activity (in words) ([1]; compared with difenhidramine): one of the most powerful of the products; sedative action / side effects on the central nervous system (in words) ([2]; in words): less sedative action; Potentiation sleep time ([3]; 40 mg/kg p.o., N.S. (not significant)): 15%; Potentiation sleep time ([3]; 80 mg/kg p.o., N.S. (not significant)): 21%; Potentiation sleep time ([3]; 160 mg/kg p.o., * significant vs control (p < 0.05)): 33%; Potentiation of the sleep time induced by pentobarbital (in words) [3]: does not potentiate the sleep time induced by the pentobarbital except at the dose of 160 mg/kg
